Data reported in publication PMC9531272, “Xanthine oxidase inhibitory study of eight structurally diverse phenolic compounds” (Frontiers in Nutrition, 2022).
Read-outs that look alike come from different tables or passages of the source.

Columns and labels:
[1] = tested on: XO; settings: cited from earlier work; for IC50: read-out: IC50 against XO
[2] = target: T1, Xanthine oxidase (XO) (Bos taurus, UniProt P80457); experiment: Determination of inhibition type (Line-weaver Burk plot); assay type: biochemical; settings: Line-weaver Burk plot analysis toward XO
T1 construct: purchased Sigma-Aldrich (Shanghai, P. R. China)

[3] = target: T1, Xanthine oxidase (XO); experiment: XO inhibitory activity of phenolic compounds (absorbance at 292 nm); assay type: biochemical; settings: XO 0.1 U/ml, 37°C, 15 min preincubation; mean ± SD

T1 sequence (P80457 whole entry): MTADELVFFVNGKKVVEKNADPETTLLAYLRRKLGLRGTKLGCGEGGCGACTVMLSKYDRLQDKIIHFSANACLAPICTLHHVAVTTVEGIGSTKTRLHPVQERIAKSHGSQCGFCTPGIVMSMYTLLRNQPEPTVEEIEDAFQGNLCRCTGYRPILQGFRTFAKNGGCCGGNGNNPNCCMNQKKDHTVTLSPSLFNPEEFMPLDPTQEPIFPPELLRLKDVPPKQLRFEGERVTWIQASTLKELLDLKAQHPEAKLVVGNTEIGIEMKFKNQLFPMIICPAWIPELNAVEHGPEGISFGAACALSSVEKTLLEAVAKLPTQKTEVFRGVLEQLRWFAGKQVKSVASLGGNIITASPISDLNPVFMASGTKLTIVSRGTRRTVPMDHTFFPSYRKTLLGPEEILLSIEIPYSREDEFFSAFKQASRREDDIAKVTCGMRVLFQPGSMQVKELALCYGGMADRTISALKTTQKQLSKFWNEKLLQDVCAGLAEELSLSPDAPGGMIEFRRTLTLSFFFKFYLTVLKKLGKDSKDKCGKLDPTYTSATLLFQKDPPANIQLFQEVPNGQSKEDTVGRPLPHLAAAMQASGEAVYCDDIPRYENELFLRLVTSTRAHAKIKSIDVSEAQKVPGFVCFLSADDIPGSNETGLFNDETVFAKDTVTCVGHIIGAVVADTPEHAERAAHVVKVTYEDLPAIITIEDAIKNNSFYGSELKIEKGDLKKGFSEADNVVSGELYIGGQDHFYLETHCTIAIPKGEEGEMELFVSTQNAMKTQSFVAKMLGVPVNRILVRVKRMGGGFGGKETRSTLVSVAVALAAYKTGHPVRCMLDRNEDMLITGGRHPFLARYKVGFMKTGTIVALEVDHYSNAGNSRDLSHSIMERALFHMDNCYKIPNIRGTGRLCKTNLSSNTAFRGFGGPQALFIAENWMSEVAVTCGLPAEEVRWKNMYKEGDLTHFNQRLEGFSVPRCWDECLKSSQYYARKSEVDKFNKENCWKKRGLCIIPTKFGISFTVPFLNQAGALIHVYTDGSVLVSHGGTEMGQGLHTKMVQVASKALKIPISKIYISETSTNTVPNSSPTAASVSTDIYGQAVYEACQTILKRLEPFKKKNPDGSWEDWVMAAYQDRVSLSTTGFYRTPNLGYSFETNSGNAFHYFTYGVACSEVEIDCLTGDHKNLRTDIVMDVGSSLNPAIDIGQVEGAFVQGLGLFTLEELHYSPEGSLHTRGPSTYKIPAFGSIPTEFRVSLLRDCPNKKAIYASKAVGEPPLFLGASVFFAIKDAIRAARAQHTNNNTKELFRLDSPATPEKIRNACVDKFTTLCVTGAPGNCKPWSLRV

Row | SMILES | Inhibition type [2] | IC50 [3] [µM] | other results
1 | Oc1ncnc2[nH]ncc12 [Allopurinol, allopurinol, reference compound] | – | – | IC50 ([1]; ref Wang et al. ([28])): 6.96 µM
2 | O=c1c(O)c(-c2ccc(O)c(O)c2)oc2cc(O)cc(O)c12 [C1, quercetin] | Mixed | – | –
3 | C[C@@H]1O[C@@H](Oc2c(-c3ccc(O)c(O)c3)oc3cc(O)cc(O)c3c2=O)[C@H](O)[C@H](O)[C@H]1O [C2, quercetin-3-rhamnoside] | Competitive | 12.1 ± 0.65 | –
4 | O=C(/C=C/c1ccc(O)c(O)c1)O[C@@H]1[C@H](O)C[C@@](O)(C(=O)O)C[C@H]1OC(=O)/C=C/c1ccc(O)c(O)c1 [C3, 4,5-O-dicaffeoylquinic acid] | Mixed | 26.7 ± 1.2 | –
5 | O=C(/C=C/c1ccc(O)c(O)c1)O[C@@H]1CC(O)(C(=O)O)C[C@@H](OC(=O)/C=C/c2ccc(O)c(O)c2)C1O (some centres unmarked) [C4, 3,5-O-dicaffeoylquinic acid] | Competitive | 28.9 ± 1.02 | –
6 | O=C(/C=C/c1ccc(O)c(O)c1)O[C@H]1[C@H](O)C[C@](O)(C(=O)O)C[C@H]1OC(=O)/C=C/c1ccc(O)c(O)c1 [C5, 3,4-O-di-caffeoylquinic acid] | Competitive | 44.6 ± 1.65 | –
7 | O=C(/C=C/c1ccc(O)c(O)c1)O[C@H]1[C@H](O)C[C@](O)(C(=O)O)C[C@H]1O [C6, 4-O-caffeoylquinic acid] | Competitive | 70.2 ± 2.25 | –
8 | O=C(/C=C/c1ccc(O)c(O)c1)O[C@@H]1C[C@](O)(C(=O)O)C[C@@H](O)[C@H]1O [C7, 3-O-caffeoylquinic acid] | Competitive | 80.9 ± 3.06 | –
9 | O=C(O)/C=C/c1ccc(O)c(O)c1 [C8, caffeic acid] | – | 95.6 ± 3.28 | XO inhibition ([1]; at 125 μM concentration, ref Song et al. ([29])): 5.74 ± 2.64%; IC50 ([1]; ref Chan et al. ([31])): > 50 µM; IC50 ([1]; ref Nguyen et al. ([33])): 85.3 µM; IC50 ([1]; ref Wang et al. ([28])): 53.5 µM; IC50 ([1]; ref Wang et al. ([30])): 65.6 ± 2.71 µM
